# Values quoted from earlier work in publication PMC8347148, “An Evaluation of Human Induced Pluripotent Stem Cells to Test for Cardiac Developmental Toxicity” (International Journal of Molecular Sciences, 2021).
# Conditions: can be as high as; cited from earlier work
structure (smiles),measurement,value
CN1CCC[C@H]1c1cccnc1 [nicotine],nicotine concentration in fetal serum,≤ 15.4 µM
